These are literature values, as cited in US5597804A, “N-sulfonylarginine keto-amide compounds” (Corvas International, Inc., priority 1993, dated 1997).

What all share (conditions): reported by Ocain et al.; read-out: inhibitor constant
In series [1] the target is T1, microsomal aminopeptidase (Sus scrofa, UniProt P15145).
T1 sequence (P15145 1-963): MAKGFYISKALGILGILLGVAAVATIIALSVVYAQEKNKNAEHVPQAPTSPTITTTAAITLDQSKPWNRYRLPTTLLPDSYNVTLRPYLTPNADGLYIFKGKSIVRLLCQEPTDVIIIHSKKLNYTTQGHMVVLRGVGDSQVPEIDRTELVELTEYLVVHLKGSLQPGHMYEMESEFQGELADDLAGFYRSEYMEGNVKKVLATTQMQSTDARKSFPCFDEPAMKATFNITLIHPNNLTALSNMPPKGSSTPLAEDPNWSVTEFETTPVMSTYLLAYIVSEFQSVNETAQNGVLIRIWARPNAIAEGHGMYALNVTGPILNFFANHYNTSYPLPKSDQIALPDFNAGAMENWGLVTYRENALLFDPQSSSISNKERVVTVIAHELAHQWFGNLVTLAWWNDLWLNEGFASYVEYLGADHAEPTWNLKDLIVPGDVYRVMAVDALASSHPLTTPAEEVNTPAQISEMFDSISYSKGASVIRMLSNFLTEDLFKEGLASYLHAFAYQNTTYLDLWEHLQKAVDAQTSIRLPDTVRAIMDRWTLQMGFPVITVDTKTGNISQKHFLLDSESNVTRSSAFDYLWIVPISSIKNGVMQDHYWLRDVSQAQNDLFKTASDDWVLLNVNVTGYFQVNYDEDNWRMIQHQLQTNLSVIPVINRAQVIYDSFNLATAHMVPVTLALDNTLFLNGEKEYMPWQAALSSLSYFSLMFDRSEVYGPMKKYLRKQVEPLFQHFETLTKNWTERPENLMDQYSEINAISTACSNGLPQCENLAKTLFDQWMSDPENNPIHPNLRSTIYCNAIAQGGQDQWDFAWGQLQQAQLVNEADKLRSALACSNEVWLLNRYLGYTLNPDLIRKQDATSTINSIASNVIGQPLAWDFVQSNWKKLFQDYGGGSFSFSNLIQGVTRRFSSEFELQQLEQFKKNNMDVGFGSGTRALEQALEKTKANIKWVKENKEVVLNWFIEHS

Series [2] concerns the target cytosol aminopeptidase.
The target in series [3] is arginyl aminopeptidase.

For the compound `NC(=O)C(=O)C(N)Cc1ccccc1` (stereo not drawn) [3-Amino-2-oxo-4-phenylbutanoic acid amide], the Ki is 2.5 mM in series [1], 1 mM in series [2] and 1.5 mM in series [3].
